Data from patent US20150259403A1, “Methods and Pharmaceutical Compositions for Treatment of Gastrointestinal Stromal Tumors” (INSERM (INSTITUT NATIONAL DE LA SANTÉ ET DE LA RECHERCHE …, priority 2012, published 2015).
“Also recorded” adds a separate entry of the source.

Tested on: RBPMS2 transcript level in GIST882 cells
Assay: RBPMS2 transcript level by quantitative RT-PCR in GIST882 cells after inhibitor treatment
Type: cell-based, human
Procedure: For quantitative RT-PCR analysis, gene expression levels were measured using the LightCycler technology (Roche Diagnostics). […] Each sample was assayed in three independent experiments in triplicate. Expression levels were determined with the LightCycler analysis software (version 3.5) relative to standard curves. Data were represented as the mean level of gene expression relative to the expression of the reference gene HPRT (Roche Diagnostic). For cell culture experiments, RNA isolation was done with the RNeasy Mini kit (Qiagen) and quantitative RT-PCR was performed using Power Sybergreen (Applied biosystems). Data were represented as the mean level of gene expression relative to the expression of the reference genes ABL, TTC1 and UBC for the comparison of RBPMS2 expression between different cell lines and GAPDH and ACTIN for GIST882 cells, which were treated with either Imatinib or U0126.
The human GIST cell line GIST882 was maintained in DMEM (GIBCO) supplemented with 10% Fetal Bovine Serum (FBS), 2% Penicilline-Streptomycin (Lonza) and incubated with 1 μM of Imatinib (inhibitor of KIT activity) (LC Laboratory) or 5 μM of U0126 (MEK inhibitor) (Sigma-Aldrich), as previously described (Gromova et al., 2011).

Structure (SMILES) | RBPMS2 transcript (mRNA) level (1 μM Imatinib vs DMSO control, 6, 24 and 48 h) | RBPMS2 transcript (mRNA) level (5 μM U0126 vs DMSO control, 6, 24 and 48 h)
Cc1ccc(NC(=O)c2ccc(CN3CCN(C)CC3)cc2)cc1Nc1nccc(-c2cccnc2)n1 [Imatinib] | No significant changes; also recorded: not influenced | –
N#CC(=C(/N)Sc1ccccc1N)/C(C#N)=C(\N)Sc1ccccc1N [U0126] | – | No significant changes; also recorded: not influenced
